# Laboratory results reported in patent US20160090351A1, “INHIBITORS OF DEUBIQUITINATING PROTEASES” (BRANDEIS UNIVERSITY, priority 2013, published 2016).
# Key:
# [1] = tested on: DUBs; assay: decomposition of high molecular weight ubiquitinated proteins (HMW-Ub) in lysates of HEK 293T cells expressing HA-Ub; assay type: biochemical, human; settings: for DUB inhibitory activity, SAR in words: relative to C4 or parent analog; for stabilization of the HMW-Ub pool: HEK 293T HA-Ub lysates, 37° C.
# Description: FIG. 30 depicts data showing that diphenylcarbonates inhibit the decomposition of high molecular weight ubiquitinated proteins (HMW-Ub). Lysates were prepared from HEK 293T cells expressing HA-ubiquitin. Samples were incubated at 37° C. and reactions were quenched by the addition of reducing Laemmli buffer. HMW-Ub was assessed by SDS-PAGE and immunoblotting with anti-HA antibody. A. Representative immunoblots measuring the decomposition of HMW-Ub in lysates treated with either the DMSO vehicle, G5 (10 μM) or C4 (500 μM). B. Plot of the decomposition of HMW-Ub in lysates treated with DMSO and C4 (500 μM) (N=2; error bars denote range). C. Inhibition of HMW-Ub decomposition by diphenylcarbonates. Lysates were treated with diphenylcarbonates (50 μM). “-” denotes no treatment; D, 1% DMSO vehicle; IU1, an USP14-specific inhibitor; Bort, bortezomib, a proteasome inhibitor. D. Representative decomposition of HMW-Ub after 2 h incubation in the presence of varying concentrations of C4. See also FIG. 36. E. Quantitation of D. The values of EC50 reported in FIG. 29B are the average and S.E.M. of at least 3 independent experiments. See also FIG. 37 and FIG. 38.
# Cells overexpressing HA-ubiquitin were prepared as above. Pellets were typically stored at −80° C. until required, at which time they were thawed on ice. Cell lysis was performed in lysis buffer using a Dounce homogenizer (10 strokes, with grinding, on ice: typical yield approx. 2-5 mg protein per transfected T75 flask for HEK 293T cells; 1-3 mg protein from a T75 flask for Cos-1). Crude lysate was centrifuged at 17000 g for 10 min at 4° C., after which time the concentration of the lysate was normalized to 1 mg/mL. The lysate was aliquoted into PCR strip tubes (typical volumes 75-50 μL) and compound in DMSO was added to this to give a final concentration of DMSO of 1%. Tubes were briefly centrifuged, overlaid with Chill-out wax (50 μL) and placed in a PCR machine at 37° C. with heated lid set to 37° C. Aliquots (9 μL) were removed at the stated times and immediately quenched in (2× final concentration) reducing (dithiothreitol) loading buffer and frozen (−19° C.) till required. Western blot analysis was carried out using standard methods. Samples were resolved by SDS-PAGE, transferred to PVDF [(0.45 μm) (Towbin buffer, tank apparatus, 90 V 1 hour, then overnight at 30 V, 4° C.)] then blocked in 15% milk in TBS-T HS (100 mM Tris HCl, pH 7.6, 500 mM NaCl, 0.5% […]) for at least 2 hours at RT. Afterward, membrane was washed in TBS-T HS then probed with anti HA-HRP (1:18000) for 1.33 hours at RT. Membrane was washed 3 times in TBS-T HS (15 mins) then once in TBS (15 mins) and exposed to ECL II and visualized using blue biofilm. […] When required, membranes were stripped in 100 mM glycine pH 4, 500 mM NaCl, 1% SDS, 5 mM BME, at 55° C. for 19 mins, then analyzed.
# Lysates were prepared from HEK 293T cells expressing N-terminally HA-tagged ubiquitin (HA-Ub) to facilitate the observation of ubiquitinated proteins. In the absence of a DUB inhibitor, the HMW-Ub pool decomposed with a half-life of 34 min (FIG. 30A,B). […] Similar results were obtained in lysates prepared from Cos-1 cells expressing HA-Ub.
# [2] = tested on: HEK 293T cells; assay: accumulation of K48- and K63-linked Ub species in HEK 293T cells; assay type: cell-based, human; settings: 50 μM, 2 h
# Description: FIG. 32 depicts data showing that diphenyl carbonates inhibit DUBs in HEK 293T cells. A. Viability of HEK 293T cells assessed by the propidium iodide exclusion method: diphenyl carbonate (100 μM), bortezomib (V, 20 μM) and G5 (2 μM). N≧3, mean+/−s.d. B. HEK 293T cells were treated with the stated compounds (50 μM) for 2 h and then assayed for the accumulation of K48-linked Ub species. C. As in A, but K63-linked Ub was assayed. D. HEK 293T cells were treated with C14, C15, C17, C18 (100 μM) or DMSO for 2 hours, then harvested, lysed and treated with HA-Ub-VS. After 30 min, lysates were analyzed by SDS-PAGE and probed for HA, tubulin and actin. An intervening lane was removed for clarity. E. HEK 293T cells expressing Ub-G76V-GFP were treated with diphenyl carbonates (100 μM), bortezomib (20 μM) and G5 (2 μM). […] N>3, Mean+/−s.d. See also FIG. 39. […]
# [3] = tested on: USP9x, USP19, USP7/8, USP28/15; assay: HA-Ub-VS activity profiling in cell lysates, USPs; assay type: biochemical, human
# Description: (§1) HA-ubiquitin vinylsulfone (HA-Ub-VS) irreversibly labels DUBs by modifying the catalytic cysteine residue Inhibition of the DUB prevents HA-Ub-VS labeling and the band is. […] The interaction with UCHL1/3 is reversible.
# (§2) Lysate labeling assay on untransfected cells (1.5 mg/mL) was run with the stated concentration of inhibitor (or 1% DMSO control) for between 19-60 mins. After this time HA-Ub-VS (1.5-0.7 μM) was added and incubated for 19 mins. After this time reaction mixture (9 μL) was removed and quenched in 2× (final concentration) reducing loading buffer. For recovery experiments, a lysate of 6 mg/mL was treated with saturating compound C14 (250 μM) and incubated for 40 mins. Afterward, the lysate was diluted to 0.6 mg/mL (final concentration of inhibitor 25 μM) in lysis buffer (final volume 100 μL), then HA-Ub-VS was added. Aliquots (15 μL) were removed at the stated time (5-119 mins) and immediately quenched in 2× (final concentration) reducing loading buffer. For all HA-Ub-VS experiments samples in loading buffer were heated only to 37° C. prior to loading on a gel. This assay is highly susceptible to concentration of lysate and HA-Ub-VS. Cell experiments were carried out as above with some modifications. For Cos-1 and MCF-7 cells, after trypsinization, media with compound was added to give a final concentration of compound equal to that used in the assay. Cell pellets were lysed on an ice/salt bath with a temperature of −5° C. and lysate was centrifuged for only 5 mins.
# (§3) HA-Ub-VS is an irreversible inhibitor of DUBs that is widely used in activity profiling. If the DUB inhibitors react to form a thiocarbonylated enzyme as proposed (FIG. 29B), then HA-Ub-VS labeling will be blocked. Treatment of HEK 293T lysates with HA-Ub-VS produced the characteristic pattern of protein bands at 250, 150-100, 45, 38 and 36 kDa, generally ascribed to USP9x (292 kDa), USP19 (146 kDa), USP7/8 (128 and 127 kDa, respectively), USP28/15 (122 and 112 kDa, respectively), UCH-L5 (38 kDa), UCH-L3 (26 kDa) and UCH-L1 (25 kDa) as depicted in FIG. 31.
# (§4) The effect of diphenylcarbonates on HA-Ub-VS labeling was assessed to investigate the selectivity of DUB inhibition. Lysates were preincubated with diphenyl carbonates (75 μM), then treated with HA-Ub-VS (FIG. 31A). […] These C17 and C22-sensitive DUBs are most likely USP9x, USP19, USP7/8 and UCHL5, based on molecular weight (FIGS. 31B and 38). The identity of USP7 was confirmed by immunoblotting (FIG. 38F). […] Similar behavior was observed on Cos-1 cell lysates (FIG. 38B).
# [4] = tested on: UCH-L5, UCH-L3, UCH-L1; assay: HA-Ub-VS activity profiling in cell lysates, UCH-Ls; assay type: biochemical, human
# Description: as §1, §2, §3, §4
# [5] = biological target: T1, USP9x (Homo sapiens, UniProt Q93008); assay: HA-Ub-VS labeling in K562 cell lysates; assay type: biochemical; settings: compound 40 minutes, then HA-Ub-VS (1.5 μM) 20 minutes
# T1 construct: endogenous in cells; host or cells: K562 cell lysate
# T1 sequence (Q93008 whole entry): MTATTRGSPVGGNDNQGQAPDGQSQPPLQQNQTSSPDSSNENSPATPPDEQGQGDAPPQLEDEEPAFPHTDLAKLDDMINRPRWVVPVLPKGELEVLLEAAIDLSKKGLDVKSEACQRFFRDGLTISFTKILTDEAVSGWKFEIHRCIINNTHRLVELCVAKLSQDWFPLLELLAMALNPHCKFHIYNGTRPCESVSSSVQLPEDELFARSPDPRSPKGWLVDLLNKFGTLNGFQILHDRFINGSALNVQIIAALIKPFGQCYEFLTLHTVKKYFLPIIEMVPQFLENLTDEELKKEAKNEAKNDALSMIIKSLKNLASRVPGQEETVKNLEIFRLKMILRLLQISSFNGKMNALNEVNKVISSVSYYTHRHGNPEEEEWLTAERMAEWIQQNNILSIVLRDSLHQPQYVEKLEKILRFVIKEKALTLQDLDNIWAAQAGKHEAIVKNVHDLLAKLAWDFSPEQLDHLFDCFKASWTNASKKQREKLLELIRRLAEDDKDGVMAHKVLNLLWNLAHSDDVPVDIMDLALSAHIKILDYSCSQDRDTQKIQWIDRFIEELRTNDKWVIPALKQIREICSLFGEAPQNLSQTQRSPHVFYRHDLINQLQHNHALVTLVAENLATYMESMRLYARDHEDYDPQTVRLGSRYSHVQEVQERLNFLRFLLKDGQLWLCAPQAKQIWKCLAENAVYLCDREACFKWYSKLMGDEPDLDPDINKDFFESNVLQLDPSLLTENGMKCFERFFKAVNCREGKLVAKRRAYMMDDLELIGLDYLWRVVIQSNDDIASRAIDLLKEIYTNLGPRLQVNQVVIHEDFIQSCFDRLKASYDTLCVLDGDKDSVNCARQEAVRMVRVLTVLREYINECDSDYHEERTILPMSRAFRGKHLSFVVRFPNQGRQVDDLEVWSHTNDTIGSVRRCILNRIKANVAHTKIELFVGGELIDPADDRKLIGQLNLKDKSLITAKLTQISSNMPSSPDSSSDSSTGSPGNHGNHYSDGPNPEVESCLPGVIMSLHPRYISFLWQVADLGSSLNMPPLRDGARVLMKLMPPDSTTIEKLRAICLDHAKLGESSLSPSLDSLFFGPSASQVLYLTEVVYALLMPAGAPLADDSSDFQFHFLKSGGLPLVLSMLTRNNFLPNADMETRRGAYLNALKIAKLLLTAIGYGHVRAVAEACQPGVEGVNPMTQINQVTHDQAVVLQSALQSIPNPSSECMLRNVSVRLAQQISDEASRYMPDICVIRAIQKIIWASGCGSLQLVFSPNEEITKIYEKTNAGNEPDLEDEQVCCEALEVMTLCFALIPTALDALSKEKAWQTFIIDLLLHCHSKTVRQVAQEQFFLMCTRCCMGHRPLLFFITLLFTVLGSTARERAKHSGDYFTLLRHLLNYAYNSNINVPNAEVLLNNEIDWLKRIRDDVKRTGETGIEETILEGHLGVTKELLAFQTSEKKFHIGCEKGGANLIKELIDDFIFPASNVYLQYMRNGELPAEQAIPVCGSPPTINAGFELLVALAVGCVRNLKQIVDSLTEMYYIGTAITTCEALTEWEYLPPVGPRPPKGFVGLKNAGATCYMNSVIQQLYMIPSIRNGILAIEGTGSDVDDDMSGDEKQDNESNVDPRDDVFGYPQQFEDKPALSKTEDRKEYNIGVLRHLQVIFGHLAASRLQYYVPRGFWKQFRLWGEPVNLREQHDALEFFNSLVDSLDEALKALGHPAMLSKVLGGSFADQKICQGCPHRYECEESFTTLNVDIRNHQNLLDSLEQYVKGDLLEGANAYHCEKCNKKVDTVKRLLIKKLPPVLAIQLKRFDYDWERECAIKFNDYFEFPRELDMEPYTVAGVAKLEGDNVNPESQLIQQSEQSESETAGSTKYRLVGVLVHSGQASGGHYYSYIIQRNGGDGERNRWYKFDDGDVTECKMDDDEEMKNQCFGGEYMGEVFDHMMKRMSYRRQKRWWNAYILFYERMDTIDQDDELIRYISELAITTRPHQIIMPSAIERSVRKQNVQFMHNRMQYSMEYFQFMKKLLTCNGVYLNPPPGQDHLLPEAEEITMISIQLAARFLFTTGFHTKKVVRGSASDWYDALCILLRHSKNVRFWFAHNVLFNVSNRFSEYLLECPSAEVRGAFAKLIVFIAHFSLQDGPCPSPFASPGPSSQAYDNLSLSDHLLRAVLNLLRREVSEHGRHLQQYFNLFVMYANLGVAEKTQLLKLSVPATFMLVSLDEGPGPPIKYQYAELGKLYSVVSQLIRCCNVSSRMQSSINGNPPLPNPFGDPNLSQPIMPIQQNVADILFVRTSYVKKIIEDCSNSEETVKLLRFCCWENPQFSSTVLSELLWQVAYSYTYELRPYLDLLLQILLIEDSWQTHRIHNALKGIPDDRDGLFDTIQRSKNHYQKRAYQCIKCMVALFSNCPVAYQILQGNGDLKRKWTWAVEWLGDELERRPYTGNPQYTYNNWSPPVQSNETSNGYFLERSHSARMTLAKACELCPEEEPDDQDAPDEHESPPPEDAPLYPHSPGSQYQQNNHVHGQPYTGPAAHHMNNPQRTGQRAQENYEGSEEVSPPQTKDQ
# Description: HA-Ub-VS is commonly used to label DUBs in cell lysates. […] A. and B. K562 cell lysates were treated with compound for 40 minutes prior to activity labeling with HA-Ub-VS (1.5 μM) for 20 minutes. Samples were analyzed by SDS-PAGE and immunoblotting with anti-HA antibody. C. […] Values were derived by fitting to the in Prism.
# [6] = tested on: DUBs; assay: A-ring SAR: total ubiquitin pool in HEK293T lysates overexpressing ubiquitin-HA, western blot; assay type: biochemical, human; settings: 1.5 h, compounds numbered as in FIG. 3
# Description: HEK293T lysates overexpressing ubiquiting-HA were treated with the stated compound for 1.5 h and the total ubiquitin pool was analyzed by western blot (HA). […] Similar data were obtained for Cos-1 lysates.
# [7] = HEK 293T lysates, 75 μM, 30 minutes preincubation
compound,measurement,setting,value
CC(C)(C)OC(=O)NCc1ccc(OC(=O)Oc2ccccc2)cc1 [Compound C3],"DUB inhibitory activity, SAR in words",[1],activity was lost
O=C(Oc1ccccc1)Oc1ccc(CNCc2ccc(Cl)cc2)cc1 [Compound C5],stabilization of the HMW-Ub pool,[1],inhibited the decomposition of the HMW-Ub pool
same,"DUB inhibitory activity, SAR in words",[1],retained DUB inhibitory activity
NCc1ccc(OC(=O)Nc2ccccc2)cc1 [Compound C7],stabilization of the HMW-Ub pool,[1],"Neither the analogous carbamates (C7 and C8, FIG. 30 and FIG. 36), nor the analogous esters (C9 and C10) stabilized HMW-Ub"
NCc1ccc(NC(=O)Oc2ccccc2)cc1 [Compound C8],stabilization of the HMW-Ub pool,[1],"Neither the analogous carbamates (C7 and C8, FIG. 30 and FIG. 36), nor the analogous esters (C9 and C10) stabilized HMW-Ub"
NCc1ccc(OC(=O)Cc2ccccc2)cc1 [Compound C9],stabilization of the HMW-Ub pool,[1],nor the analogous esters (C9 and C10) stabilized HMW-Ub
NCc1ccc(CC(=O)Oc2ccccc2)cc1 [Compound C10],stabilization of the HMW-Ub pool,[1],nor the analogous esters (C9 and C10) stabilized HMW-Ub
"NCc1ccc(OC(=O)Oc2ccc(F)cc2)cc1 [Compound C11, 4-(aminomethyl)phenyl(4-fluorophenyl)carbonate]","DUB inhibitory activity, SAR in words",[1],had no effect on inhibitory activity
"Cc1ccc(OC(=O)Oc2ccc(CN)cc2)cc1 [Compound C12, 4-(aminomethyl)phenyl(4-methylphenyl)carbonate]","DUB inhibitory activity, SAR in words",[1],had no effect on inhibitory activity
"COc1ccc(OC(=O)Oc2ccc(CN)cc2)cc1 [Compound C13, 4-(aminomethyl)phenyl(4-methoxyphenyl)carbonate]","DUB inhibitory activity, SAR in words",[1],had no effect on inhibitory activity
"NCc1ccc(OC(=O)Oc2ccccc2Cl)cc1 [Compound C16, 4-(aminomethyl)phenyl(2-chlorophenol)carbonate]","DUB inhibitory activity, SAR in words",[1],improved potency relative to C4
CC(C)(C)OC(=O)NCc1ccc(OC(=O)Oc2ccc3ccccc3c2)cc1 [Compound C19],"DUB inhibitory activity, SAR in words",[1],Inhibitory activity was not recovered
CC(C)(C)CNCc1ccc(OC(=O)Oc2ccc3ccccc3c2)cc1 [Compound C20],"DUB inhibitory activity, SAR in words",[1],inhibitory activity was retained
same,accumulation of K48-linked HMW-Ub,[2],failed to cause the accumulation of HMW-Ub
CC(C)CNCc1ccc(OC(=O)Oc2ccc3ccccc3c2)cc1 [Compound C21],"DUB inhibitory activity, SAR in words",[1],somewhat deleterious
N=C(N)NCc1ccc(OC(=O)Oc2ccc3ccccc3c2)cc1 [Compound C22],"DUB inhibitory activity, SAR in words",[1],efficacious
same,HA-Ub-VS labeling of USPs,[3]; [7],decreased HA-Ub-VS labeling of several USPs
same,"HA-Ub-VS labeling, dose response",[3]; at 12 μM,significantly inhibited the labeling of several high molecular weight proteins
same,HA-Ub-VS labeling of UCHL enzymes,[4]; [7],relatively little effect on the UCHL enzymes
same,"inhibition of UCH-L1/3/5, dose response",[4]; below 50 μM,little inhibition of UCH-L1/3/5 was observed below 50 μM
same,accumulation of K48-linked HMW-Ub,[2],failed to cause the accumulation of HMW-Ub
"CC(C)(C)OC(=O)NCc1ccc(OC(=O)Oc2ccc(Cl)cc2)cc1 [Compound C23, N-Boc 4-(aminomethyl)phenyl(4-chlorophenyl)carbonate]","DUB inhibitory activity, SAR in words",[1],Inhibitory activity was not recovered
CC(C)(C)OC(=O)NCc1ccc(NC(=S)Oc2ccccc2)cc1 [TCM23],EC50,[5],> 50 µM
CC(C)(C)OC(=O)NCc1ccc(NC(=S)Oc2ccc(Cl)cc2)cc1 [TCM28],EC50,[5],45 ± 8 µM
CC(C)CNCc1ccc(OC(=O)Oc2ccc3ccccc3c2)cc1.Cl [compound 10],inhibition (total ubiquitin pool),[6],have some potency
CC(C)(C)CNCc1ccc(OC(=O)Oc2ccc3ccccc3c2)cc1.Cl [compound 11],inhibition (total ubiquitin pool),[6],have some potency
"CC(C)(C)OC(=O)NCc1ccc(OC(=O)Oc2ccc(Cl)cc2)cc1 [compound 16, N-Boc 4-(aminomethyl)phenyl(4-chlorophenyl)carbonate]",inhibition (total ubiquitin pool),[6],not an efficient inhibitor
